We go through two molecules from patent publication US20020193425A1, “Cancer chemopreventative compounds and compositions and methods of treating cancers” (priority 2001, published 2002).

Data set [1] deals with DHL-6 cells. In words: Membrane markers of B-lymphocyte maturation by flow cytometry. As to conditions: brusatol (5 ng/ml), control 197.5. It counts as cell-based. As to the method: (§1) Cell lines were tested using a 4-day incubation protocol, unless otherwise specified.
(§2) 3) Determination of cell surface antigen by flow cytometry. Cells (10^6) were washed with PBS and then incubated for 30 min at room temperature with respective monoclonal antibodies, washed with 20 volumes of diluent (PBS with 0.1% sodium azide and 1% BSA), and resuspended in 0.5 ml of fresh diluent for evaluation. Necrotic cells were excluded from the analysis by propidium iodide (PI) staining. The following mAbs (Sigma, St. Louis, Mo.) were used to assess the maturation level of myeloid cell lines: antiCD15 (Leu M1), antiCD-11b (OKM1), antiCD14 and antiCD13. The following mAbs (Sigma, St. Louis, Mo.) were used to assess the maturation level of lymphocytic cell lines: antiCD20, antiHLA-DR and antikappa light chain.
(§3) Finally, various membrane markers of B-lymphocyte maturation (i.e., CD20, superficial light chain kappa and HLA-DR) in SUPB13, RS4;11, Reh, Daudi and DHL-6 were analyzed. Few changes were observed, but brusatol induced a small increase in CD20 with DHL-6 cells (197.5 control vs. 225.3 brusatol (5 ng/ml), specific mean fluorescence intensity), and a larger increase of HLA-DR in Daudi cells (92.5 control vs. 244.9 brusatol (10 ng/ml), specific mean fluorescence intensity).
(In general: Flow cytometry measures light scatter and fluorescence of single cells or particles in a stream.)

For data set [2], the system named is Daudi cells. The data set is described as above. It counts as cell-based. As to conditions: brusatol (10 ng/ml), control 92.5. On the procedure: as §1, §2, §3
The subject of data set [3] is HL-60 (human promyelocytic) cells. In words: HL-60 cell differentiation of quassinoids, NBT reduction. As to conditions: Homo sapiens, HL-60, 96 h, read-out: induction of differentiation (EC50, μM). It counts as cell-based. As to the method: Induction of differentiation was determined by the ability of treated cells to produce superoxide anions (nitroblue tetrazolium (NBT)-reduction), a functional marker of mature macrophages or granulocytes. Proliferation capacity is equivalent to cell growth and was measured by incorporation of [3H]thymidine into DNA over a period of 18 h, and cytotoxic activity was evaluated by the loss of membrane integrity as shown by trypan blue exclusion. […] Although members of the brusatol and glaucarubolone series were active, when comparing members of both series that varied only in the positioning of the epoxymethano bridge, great differences were noted, as shown with yadianzolide C (5) and glaucarubolone (24), and analogues 4 (brusatol series) and 32 (glaucarubolone series).
HL-60 (human promyelocytic) cells were tested using a 4-day incubation protocol. In brief, cells in log phase (approximately 10^6 cells/mL) were diluted to […] and preincubated overnight (18 h) in 24-well plates to allow cell-growth recovery. Then, samples dissolved in DMSO were added, keeping the final DMSO concentration at 0.1% (v/v). Control cultures were treated with the same concentration of DMSO. After 4 days of incubation, the cells were analyzed to determine the percentage of cells undergoing maturation as determined by NBT reduction. Concomitantly, the effect on viability and proliferation of HL-60 cells was determined. In each experiment, 1α, 25-dihydroxyvitamin D3 (EC50=0.01 μM) and brusatol (EC50=0.07 μM) were used as reference controls. EC50 and IC50 values were calculated using 5-7 test concentrations (in duplicate), and consistent results were obtained, indicating the data reported for the related quassinoids are reliable.
(1) Nitroblue Tetrazolium (NBT) Reduction. Evaluation of NBT reduction was used to assess the ability of sample-treated HL-60 cells to produce superoxide when challenged with 12-O-tetradecanoylphorbol 13-acetate (TPA). A 1:1 v/v) mixture of a cell suspension (10^6 cells) and TPA/NBT solution (2 mg/mL NBT and 1 μg/mL TPA in phosphate buffered solution) was incubated for 1 h at 37° C. Positive cells reduce NBT yielding intracellular black-blue formazan deposits, which were quantified by microscopic examination of >200 cells. Results were expressed as a percentage of positive cells.

A short description of data set [4]: Withdrawal assays, growth and differentiation of HL-60 cells. It counts as cell-based, human. As to conditions: human, HL-60 cells. On the procedure: (§4) The irreversibility of brusatol effects on growth and differentiation of HL-60 cells was tested using withdrawal assays during a 4-day experiment.
(§5) The assay lasted for 4 days (96 h) and then, cells were analyzed for viability and differentiation markers. […] Results are shown as the mean of duplicate samples (±standard deviation).

Data set [5] deals with HL-60 cells. The description is as above. It counts as cell-based, human. The settings on record: 12.5 ng/ml. As to the method: as §4, §5
Data set [6] is described as follows: Cytotoxicity, viability by Trypan blue exclusion. The settings on record: human, K562 cells.
Protocol: (§6) HL-60, K562, U937, Reh and Daudi cells were obtained from the American Type Culture Collection (Rockville, Md.). Kasumi-1, NB4, BV173, SUPB13, and RS4;11 cells were provided by the Section of Hematology/Oncology, University of Illinois College of Medicine, Chicago, Ill. All cell lines were maintained in suspension culture using RPMI 1640 medium supplemented with 10% heat-inactivated fetal bovine serum, 100 units of penicillin/ml and 100 μg of streptomycin/ml at 37° C. in a humidified atmosphere of 5% CO2 in air. All cells were routinely tested for mycoplasma contamination.
(§7) Cellular viability was monitored by Trypan blue exclusion. Inhibition of [3H]thymidine incorporation into DNA was determined to assess the level of cell proliferation as well as DNA synthesis inhibition. Cells were treated with test samples for four days and then placed into 96-well plates (100 μl) and treated with [3H]thymidine (0.5 μCi/ml, 65 Ci/mmol) for 18 h at 37° C. in a 5% CO2 incubator. Cells then were collected on glass fiber filters using a TOMTEC Harvester 96®. The filters were counted using a Microbeta™ liquid scintillation counter (Wallac, Turku, Finland) with scintillation fluid. Finally, the percentage of [3H]thymidine incorporation per 10^6 cells was calculated by dividing the dpm of sample-treated cells by the dpm of DMSO-treated cells.
(§8) ^aViability was determined by Trypan blue exclusion in duplicate samples. […] Results are expressed as median inhibitory cell concentrations of two independent experiments (±standard deviations).
Data set [7] in a line: Cytotoxicity, viability by Trypan blue exclusion. As to conditions: human, U937 cells, Cytotoxicity (IC50, ng/ml), four days.
Protocol: as §6
(§9) Cellular viability was monitored by Trypan blue exclusion. Inhibition of [3H]thymidine incorporation into DNA was determined to assess the level of cell proliferation as well as DNA synthesis inhibition. […] The filters were counted using a Microbeta™ liquid scintillation counter (Wallac, Turku, Finland) with scintillation fluid. Finally, the percentage of [3H]thymidine incorporation per 10^6 cells was calculated by dividing the dpm of sample-treated cells by the dpm of DMSO-treated cells.
as §8
Data set [8] deals with U937. In words: Cytotoxicity, viability by Trypan blue exclusion. The settings on record: four days.
Protocol: as §6, §9, §8
Data set [9] is described as follows: Cytotoxicity, viability by Trypan blue exclusion. As to conditions: human, RS4;11 cells, Cytotoxicity (IC50, ng/ml), four days.
Protocol: (§10) All cell lines were maintained in suspension culture using RPMI 1640 medium supplemented with 10% heat-inactivated fetal bovine serum, 100 units of penicillin/ml and 100 μg of streptomycin/ml at 37° C. in a humidified atmosphere of 5% CO2 in air.
(§11) Cellular viability was monitored by Trypan blue exclusion.
as §8
In data set [10] the test system is RS4;11. In words: Cytotoxicity, viability by Trypan blue exclusion. As to conditions: four days.
Protocol: as §10, §11, §8
The nature of data set [11]: Cytotoxicity, viability by Trypan blue exclusion. As to conditions: human, Reh cells, Cytotoxicity (IC50, ng/ml), four days.
Protocol: as §10, §11, §8
The subject of data set [12] is Reh. Briefly: Cytotoxicity, viability by Trypan blue exclusion. As to conditions: four days.
Protocol: as §10, §11, §8
Data set [13] in a line: in vitro. The settings on record: human.
Protocol: as §6, §7, §8
For data set [14], the system named is patients with various types of solid tumors. As to conditions: phase I clinical trials; cited from earlier work.

Broadly, the EC50 is the concentration giving half of the maximal effect. By viability is commonly meant a per cent measure of how many cells are alive, often set against a control. A word on the IC50: it is the point on the concentration scale where inhibition reaches its midpoint.

Each structure is given as a SMILES string. ≈ marks a conversion by molar mass, not a printed value.

Turning to `COC(=O)[C@@]12OC[C@]34[C@H]([C@@H](O)[C@@H]1O)[C@@]1(C)CC(=O)C(O)=C(C)[C@@H]1C[C@H]3OC(=O)[C@H](OC(=O)C=C(C)C)[C@@H]24` [compound 1, brusatol], in data set [1], the “CD20, specific mean fluorescence intensity” value was 225.3. Moreover, the “HLA-DR, specific mean fluorescence intensity” value in data set [2] is on record as 244.9. Besides, the EC50 in data set [3] was found to be 0.07 µM. Also, in [4] (12.5 ng/ml, 48 h exposure), the viability at 48 h, 12.5 ng/ml was above 80%. Moreover, in [4] (12.5 ng/ml, 72 h exposure), the viability at 72 h, 12.5 ng/ml worked out at 56%. In data set [4] (12.5 ng/ml, 96 h exposure), the viability at 96 h, 12.5 ng/ml came to 45%. The selectivity ratio in [4] (2-day protocol versus 4-day protocol, read-out: increase in selectivity (differentiation vs cytotoxicity)) stood at 10. Moreover, the IC50 at 4 days in data set [4] (4-day protocol, read-out: cytotoxic IC50) is 0.025 µg/mL (≈ 0.048 µM); in data set [6], above 0.1 µg/mL; in data set [7], below 0.025 µg/mL; in data set [9] it was below 0.025 µg/mL; in data set [11] it was 0.05 to 0.1 µg/mL (≈ 0.0961 to 0.192 µM). Also, in data set [4] (2 day-protocol, read-out: cytotoxic IC50), the half-inhibitory concentration (IC50) at 2 days worked out at 0.25 µg/mL (≈ 0.48 µM). Also, the “cells induced to differentiate” value amounted to 41% in data set [5] (withdrawal after 48 h of exposure, 4-day experiment) and 46% in [5] (without withdrawal). The same molecule showed a viability at 4 days, 100 ng/ml in data set [6] of around 90%. Further, the results for the “Cytotoxicity (IC50, ng/ml)” value in data set [8], in data set [10] and in data set [12] were 12.5 ± 1.1 ng/mL, 25 ± 2 ng/mL and 100 ± 5.4 ng/mL, respectively.
`COC(=O)[C@@]12OC[C@]34[C@H]([C@@H](O)[C@@H]1O)[C@@]1(C)CC(=O)C(O)=C(C)[C@@H]1C[C@H]3OC(=O)[C@H](OC(=O)/C=C(\C)C(C)C)[C@@H]24` [compound 2, bruceantin]: in data set [3], the half-maximal effective concentration (EC50) was 0.02 ± 0.002 µM. The concentration for half-maximal inhibition (IC50) at 4 days in [13] was above 0.05 µg/mL. Also, the hematologic toxicity entry in data set [14] is “moderate to insignificant”.
